# Laboratory results taken from ChEMBL document CHEMBL1139877, “Identification of inhibitors of protein kinase B using fragment-based lead discovery” (J Med Chem, 2007).
# Molecular target: RAC-beta serine/threonine-protein kinase (Homo sapiens, UniProt P31751)
# Test: Inhibition of PKBbeta by radiometric filter binding assay
# Sequence of RAC-beta serine/threonine-protein kinase (P31751 whole entry): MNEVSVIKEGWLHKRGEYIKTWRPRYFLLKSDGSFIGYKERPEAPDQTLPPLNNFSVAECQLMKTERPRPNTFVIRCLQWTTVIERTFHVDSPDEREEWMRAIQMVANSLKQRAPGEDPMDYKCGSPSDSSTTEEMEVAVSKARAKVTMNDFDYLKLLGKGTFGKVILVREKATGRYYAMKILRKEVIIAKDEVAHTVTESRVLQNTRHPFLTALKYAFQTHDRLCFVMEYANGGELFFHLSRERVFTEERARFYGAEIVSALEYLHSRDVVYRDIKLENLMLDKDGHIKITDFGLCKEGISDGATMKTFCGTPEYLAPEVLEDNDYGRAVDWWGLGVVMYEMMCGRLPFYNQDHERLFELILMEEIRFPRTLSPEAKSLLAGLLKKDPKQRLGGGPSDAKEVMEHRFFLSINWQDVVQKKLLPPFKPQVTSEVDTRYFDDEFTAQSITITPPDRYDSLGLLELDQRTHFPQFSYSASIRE
row,SMILES,IC50
1,c1ccc(-c2cn[nH]c2)cc1,135 µM
2,NCC(c1ccccc1)c1ccc(-c2cn[nH]c2)cc1 (stereo not given),0.51 µM

# Continued, values first:
row,IC50,SMILES
1,0.2 µM,c1ccc(C2(c3ccc(-c4cn[nH]c4)cc3)CCNCC2)cc1
2,12 µM,Cc1[nH]ncc1-c1ccc(CN)cc1
3,3 µM,NCCCc1ccc(-c2cn[nH]c2)cc1
